≈ marks a conversion by molar mass, not a printed value. Read-outs that look alike come from different tables or passages of the source.

Data set [1] has as its system HHV-2 E194. As to the kind of experiment: Viral CPE inhibition assay (neutral red), HHV-2 E194 wild type. The class given is cell-based. The conditions noted are these: for IC50: 96 h, HHV-2 E194 (WT), Vero-76 cells, neutral red, day 4 post-infection; for SI (Selectivity Index CC50/IC50): HHV-2 E194. The source says:
(§1) Viral CPE inhibition assay to determine KPB-100 anti-HHV-2 TK-mutant activity: HHV-2 thymidine kinase mutant (TK-minus; TK-), CI-10161 was a patient isolate obtained on 11 November 1986 from Bruce Ronnie at Burrows Welcome. It was amplified one time in MA-104 cells. HHV-2 TK- CI-1253 (18 February 1991) was a patient isolate obtained on 05 February 1992 from Bruce Ronnie at the department of medicine at the University of British Colombia and amplified one time in Vero cells. HHV-2 (E194) was the standard wild-type E194 strain from the USU archives. KPB-100 was suspended in water (100 μg/mL). It was diluted 1/2 in minimum essential medium (MEM) solution, then diluted down further in half-log dilutions in MEM solution with 50 μg/mL gentamicin and 2% foetal bovine serum. Each dilution was added to 5 wells of a 96-well plate with an overnight monolayer of 80–100% confluent Vero-76 cells. Acyclovir and cidofovir were tested in parallel as controls. Three wells of each dilution were then infected with virus, and two wells remained uninfected as toxicity controls. The MOI was approximated 0.001 for CI-1253, 0.002 for CI-10161 and 0.017 for E194. When untreated virus control wells reached near complete cytopathic effect (CPE), which was day-four post-infection in each case, plates were stained with neutral red dye (which measures cell viability, thus can be used for quantifying the vitality of both virus-infected and uninfected, drug-treated cell cultures) for approximately 2 h, then supernatant dye was removed and the incorporated dye was extracted in 50:50 Sorensen citrate buffer/ethanol, then read on a spectrophotometer at 540 nm. Optical density (OD) values were normalized based on cell and virus controls, then IC50, 50% cytotoxic concentration (CC50) values, and Selectivity Index (SI) were calculated by regression analysis.

Data set [2] relates to HHV-2 TK- 1253. The data set can be described thus: Viral CPE inhibition assay (neutral red), HHV-2 TK- CI-1253. In kind it is cell-based. The note with it: for IC50: 96 h, HHV-2 TK- 1253, Vero-76 cells, neutral red, day 4 post-infection; for SI (Selectivity Index CC50/IC50): HHV-2 TK- 1253.
From the text: as §1

The test system of data set [3] is HHV-2 TK- 10161. As to the kind of experiment: Viral CPE inhibition assay (neutral red), HHV-2 TK- CI-10161. In kind it is cell-based. The conditions noted are these: for IC50: 96 h, HHV-2 TK- 10161, Vero-76 cells, neutral red, day 4 post-infection; for SI (Selectivity Index CC50/IC50): HHV-2 TK- 10161.
From the text: as §1

A short description of data set [4]: Cytotoxicity in uninfected cultures (neutral red) run with the CPE inhibition assay. In kind it is cell-based. The note with it: African green monkey, uninfected Vero-76 cells, run in parallel with each virus, read-out: CC50 (50% cytotoxic concentration of compound in uninfected cultures).
From the text: as §1

The subject of data set [5] is HHV-2 TK-. The data set can be described thus: Viral CPE inhibition assay, HHV-2 TK- (mean of the two TK- isolates). The class given is cell-based.
From the text: as §1

Data set [6] deals with VACV (WR). The data set can be described thus: microbe, parasite or virus in culture. The class given is cell-based. The note with it: Orthopoxvirus vaccinia, Vero 76, 72 h.
Data set [7] has as its system HHV-2, strain G (ATCC VR-734). As to the kind of experiment: Standard plaque reduction assay against HHV-2 WT. The class given is cell-based. On the technique in general: Plaques are areas of infected cells; plaque reduction assays count them against a control.
In data set [8] the test system is HHV-1 (v2424). As to the kind of experiment: HHV-1 virus yield reduction (VYR) assay. In kind it is cell-based. The note with it: Vero 76, read-out: IC90 (concentration reducing virus yield by 1 log10 or 90%).
For data set [9], the system named is VACV WR-GFP virus (VV.NP-S-EGFP). The data set can be described thus: microbe, parasite or virus in culture. The class given is cell-based, Vaccinia virus. The conditions noted are these: for IC50: HeLa, 24 h, read-out: IC50 virus spread inhibition.
The test system of data set [10] is VACV WR-GFP. The class given is cell-based, Vaccinia virus.
Data set [11] deals with Vero-76 cells. The conditions noted are these: African green monkey.
In data set [12] the test system is C1008 cells. As to the kind of experiment: Cytotoxicity measured by CPE in plaque reduction. The note with it: 25 μg/mL.
Setting [13] is: Vero 76, mean over TK- isolates 1253 and 10161, CPE inhibition, Vero-76 cells, read-out: mean IC50 against HHV-2 TK-.

A word on the IC50: it is the concentration needed to halve the response being measured. For the molecule `Nc1nc2c(ncn2COCCO)c(=O)[nH]1` [Acyclovir, acyclovir], the half-inhibitory concentration (IC50) in [1] was found to be 0.49 µg/mL (≈ 2.18 µM); in [2], 9.3 µg/mL (≈ 41.3 µM); in data set [3], 15 µg/mL (≈ 66.6 µM); in data set [5] (setting [13]), 12.2 µg/mL (≈ 54.2 µM). In addition, the entries for the “SI (Selectivity Index CC50/IC50)” value in data set [1], in data set [2] and in data set [3] were more than 204, more than 11 and more than 6.7, respectively. Also, the CC50 at 4 days in data set [4] was more than 100 µg/mL.

As for `Nc1ccn(C[C@@H](CO)OCP(=O)(O)O)c(=O)n1` [Cidofovir, cidofovir], the IC50 in data set [1] turned out to be 4.3 µg/mL (≈ 15.4 µM); in [2] it was 0.22 µg/mL (≈ 0.788 µM); in data set [3], 1.2 µg/mL (≈ 4.3 µM); in data set [6], 9.7 µg/mL (≈ 34.7 µM); in data set [5] (setting [13]) it was 0.71 µg/mL (≈ 2.54 µM). The “SI (Selectivity Index CC50/IC50)” value in data set [1] is recorded as more than 23; in [2], more than 450; in [3], more than 83. Also, in data set [4], the CC50 at 4 days is more than 100 µg/mL.

A word on the inhibition: it is the change of the read-out against control, counted positive when it falls. Consider `COc1cc([C@@H]2c3cc(OC)c(OC)cc3C[C@H](CO)[C@H]2CO[C@@H]2OC[C@@H](O)[C@H](O)[C@H]2O)ccc1O` [KPB-100, scaphopetalone], for which the IC50 in [7] was 2.5 µg/mL (≈ 4.94 µM); in [1], 5.4 µg/mL (≈ 10.7 µM); in data set [2], 4.6 µg/mL (≈ 9.08 µM); in data set [3], 4.5 µg/mL (≈ 8.88 µM); in data set [6], 3.1 µg/mL (≈ 6.12 µM); in [9] (Orthopoxvirus vaccinia), 1.63 µg/mL (≈ 3.22 µM). The IC50 in [5] (Vero 76, read-out: mean IC50 against HHV-2 TK-, mean over TK- isolates 1253 and 10161, CPE inhibition, Vero-76 cells) was 4.5 µg/mL (≈ 8.88 µM). For the same molecule, the “SI (Selectivity Index CC50/IC50)” value in data set [1] is on record as more than 4.6; in [2], more than 5.4; in [3], more than 5.6. Besides, the CC50 at 4 days in [4] is more than 25 µg/mL. Moreover, in data set [8], the IC90 turned out to be 3 µg/mL (≈ 5.92 µM). Further, the inhibition at 4 µg/mL in data set [9] (Orthopoxvirus vaccinia, 4 μg/mL, read-out: inhibition of virus spread) is approximately 100%. For the same molecule, in data set [10], the “anti-VACV activity in virus yield inhibition assay (in words)” value was “exhibited anti-VACV activities”. Moreover, the “mean IC50 against HHV-2 TK-” value in data set [5] (mean over TK- isolates 1253 and 10161, CPE inhibition, Vero-76 cells) turned out to be 4.55 µg/mL. For the same molecule, in [11], the toxicity estimated visually is recorded as 20%. Also, the “cytotoxicity (cytopathic effect)” value in data set [12] is less than 20%.

As for `COc1cc(O)cc(O[C@@H]2O[C@H](COC(=O)c3cc(OC)c(O)c(OC)c3)[C@@H](O)[C@H](O)[C@H]2O)c1` [KPB-200], the IC50 in data set [7] amounted to 2.9 µg/mL (≈ 6.01 µM); in [6], 7.4 µg/mL (≈ 15.3 µM); in data set [9] (Orthopoxvirus vaccinia), 13.2 µg/mL (≈ 27.4 µM). In addition, in data set [9], the “IC50 virus spread inhibition” value is 13.19 µg/mL (≈ 27.3 µM). In data set [10], the “anti-VACV activity in virus yield inhibition assay (in words)” value is reported as “exhibited anti-VACV activities”. The “cytotoxicity (cytopathic effect)” value in [12] was less than 20%.

The values are drawn from publication PMC6130675 (Pharmaceutical Biology, 2017).
